Results on nine compounds are retold here after PubChem BioAssay (NCI).

Common to all, as to assay: growth of human tumour cells (NCI), 48 h
In assay [1] the test system is CAKI-1 renal.
Assay [2] concerns HCT-116 colon.
In assay [3] the test system is K-562 leukemia.
Assay [4] concerns PC-3 prostate.
For assay [5], the system named is SK-MEL-2 melanoma.
For assay [6], the system named is SNB-75 CNS.
Assay [7] concerns SR leukemia.
Assay [8] concerns TK-10 renal.
Assay [9] has as its system UACC-257 melanoma.
The test system of assay [10] is MALME-3M melanoma.

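Values below derive from 48-hour exposures of cells grown in 96-well plates, with endpoints linearly interpolated between the two concentrations bracketing the appropriate inhibition level. At the GI50, growth is halved. The concentration for full growth arrest is given as TGI.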

With `Cc1ccc2c(c1)C(=O)c1c-2n(CCCN=[N+]=[N-])c(=O)c2cc([N+](=O)[O-])ccc12`, the GI50 in assay [1] is 53.9 µM; in assay [2] it was 20.5 µM; in assay [3], 39.4 µM; in assay [4], 33.4 µM; in assay [5], more than 100 µM; in assay [6], 1.26 µM. For the same compound, the GI50 is 8.21 µM in [7], 99.8 µM in assay [8] and more than 100 µM in assay [9]. In addition, the TGI in assay [1] is more than 100 µM; in assay [2], more than 100 µM; in assay [3], more than 100 µM; in assay [4] it was more than 100 µM; in [5], more than 100 µM; in assay [6], 58.6 µM. Further, the TGI was 63.1 µM in assay [7], more than 100 µM in assay [8] and more than 100 µM in [9].

For the compound `Cc1sc2ncn(Cc3ccc(Cl)c(Cl)c3)c(=O)c2c1C`, the GI50 was 3.47 µM in [1]; 17.4 µM in assay [2]; 5.4 µM in assay [3]; 20.1 µM in [4]; 27.7 µM in [5]; 29.3 µM in assay [6]. Also, the GI50 in assay [7] was 29.8 µM; in assay [8], 1.81 µM; in [9], 78.8 µM. For the same compound, the TGI in assay [1] was 32.9 µM; in assay [2], 44.8 µM; in [3], more than 100 µM; in [4], more than 100 µM; in assay [5], more than 100 µM; in assay [6], more than 100 µM. Further, the TGI is more than 100 µM in assay [7], 7.91 µM in [8] and more than 100 µM in [9].

Regarding `CCOC(=O)/C(C#N)=C/Nc1ccc(-c2nc3ccccc3[nH]2)cc1`, the GI50 was 26.6 µM in assay [1]; more than 100 µM in [2]; 25.1 µM in assay [3]; 29.8 µM in [4]; 42.6 µM in assay [5]; 24.2 µM in assay [6]. The GI50 is 40.8 µM in [7], 16.8 µM in assay [8] and 62.1 µM in [9]. In addition, the TGI in assay [1] is 74.1 µM; in assay [2], more than 100 µM; in [3], 98.6 µM; in assay [4], more than 100 µM; in assay [5], more than 100 µM; in assay [6] it was 56.7 µM. Moreover, the results for the TGI in [7], in assay [8] and in assay [9] were more than 100 µM, 54.2 µM and more than 100 µM, respectively.

`Cc1nnc(-c2ccc(-c3nc4ccccc4o3)cc2)o1`: the GI50 in assay [1] was more than 100 µM; in assay [2] it was more than 100 µM; in assay [3], 29.5 µM; in assay [4], 34.7 µM; in assay [5], more than 100 µM; in assay [7] it was 25.8 µM. For the same compound, the GI50 in assay [8] was more than 100 µM; in [9] it was 34.7 µM. The TGI in assay [1] is more than 100 µM; in [2] it was more than 100 µM; in assay [3], more than 100 µM; in [4] it was more than 100 µM; in assay [5], more than 100 µM; in [7], 68 µM. For the same compound, the TGI in assay [8] is more than 100 µM; in assay [9], 90.7 µM.

For `COc1ccc(C(=O)O/N=C2/CCC/C2=C\c2ccccc2)cc1`, the TGI in assay [1] is more than 100 µM; in assay [2], more than 100 µM; in [3], more than 100 µM; in [10] it was more than 100 µM; in assay [5], more than 100 µM; in [6], more than 92.9 µM. Moreover, the TGI in [7], in assay [8] and in assay [9] was more than 100 µM each time.

Consider `Cc1cc(O)cc2c1c(=O)c1ccccc1n2C`, for which the TGI in [1], in assay [2], in assay [4], in [5], in assay [6] and in [7] was more than 100 µM in each case. Moreover, the TGI in assay [8] and in assay [9] was more than 100 µM in each case.

For `COC(=O)Cc1nc2ccccc2o1`, the TGI in assay [1], in assay [2], in assay [3], in assay [10], in [5] and in [6] was more than 100 µM throughout. For the same compound, the TGI in assay [7], in assay [8] and in [9] was more than 100 µM each time.

`Nc1nc(N)c(-c2ccccc2)c(CCC(=O)Nc2ccc(Cl)cc2)n1`: the TGI in assay [1], in [2], in [3], in assay [10], in assay [5] and in assay [6] was more than 100 µM in each case. Also, the TGI in [7], in [8] and in assay [9] was more than 100 µM in each case.

For `CCOC(=O)/N=c1/nc(N(C)C)ss1`, the TGI in assay [1], in [2], in assay [3], in assay [10], in assay [5] and in [6] was more than 100 µM throughout. Besides, the TGI in assay [7], in assay [8] and in assay [9] was more than 100 µM each time.
